According to patent US20120165334A1, “Indole/Benzimidazole Compounds as mTOR Kinase Inhibitors” (AMGEN INC., priority 2009, published 2012):
Like-named read-outs stand apart in the source and are kept apart here.

Legend:
mTOR = target: T1, mTOR (Homo sapiens, UniProt P42345); assay: mTOR LanthaScreen (TR-FRET, phosphorylation of 4EBP1); format: biochemical; settings: read-out: AA11016+++mTor_MA_IC50_IP
T1 construct: 2.5 μl of 0.6 μg/ml of mTOR Enzyme (Amgen) was added to rows 1-23
Protocol: The mTOR LanthaScreen is a TR-FRET assay measuring the phosphorylation of mTOR's substrate 4EBP1. 384 well compound plates were prepared containing 1 μl of compound per well starting at 5 mM and diluted 1:2 across the row, resulting in a 22 well serial dilution.
The assay was conducted on the PerkinElmer® FlexDrop PLUS. A 5 μl mix of 800 nM GFP-4E-BP1 (Invitrogen, PV4759) and 20 μM ATP (Amgen) was added to rows 1-24. 2.5 μl of 0.6 μg/ml of mTOR Enzyme (Amgen) was added to rows 1-23. 2.5 μl of assay buffer was added to row 24 for the low control. […] The final concentrations in the assay reagents were 400 nM GFP-4E-BP1, 10 μM of ATP and 0.15 μg/ml of mTOR enzyme. The compound, enzyme, and substrate incubate for 90 minutes.

[1] = system: phosphorylation of Akt at Serine 473; assay: pAkt AlphaScreen in U87 MG cells; format: cell-based; settings: read-out: AA11809+++pAKT_U87_IC50_IP
Protocol: The pAkt AlphaScreen assay determines whether there is phosphorylation of Akt at Serine 473 by recruitment of a phosphospecific antibody. This assay was performed using U87 MG cells. […] The cells were maintained weekly using 0.05% Trypsin (Gibco, 25300-054) and replated in 150 mm TC—Treated Culture Dishes (Corning, 430599).
The first day of the assay, the adherent cells were trypsinized, media was added to the loose cells and cells were mixed to a homogenous mixture. 0.5 ml of the homogenous mixture was counted on the Beckman Coulter® Vi-CELL™ XR. 50 frames of cells were counted and the number of viable cells was determined. The cells were then diluted to 0.25 million cells per ml, and centrifuged at 200 rcf for 5 minutes. The media was removed and the cells were reconstituted in fresh media for plating. The cells were plated at 20 μl per well on the PerkinElmer® FlexDrop PLUS in Low Volume 384 Well White Tissue Culture Plates (Corning, 3826) with a final cell density of 5K cells per well. The plates were incubated overnight at 37° Celsius, 5% CO2.
On the second day, the compound plates were prepared, the cells were treated with compound and the pAkt reaction mix was added to the cell lysate. 384 well compound plates were prepared by Amgen's Sample Bank containing […] of compound per well starting at 5 mM and diluted 1:2 across the row, resulting in a 22 well serial dilution. 39 μl of growth media was added to the compound plate in rows 1-22 using the PerkinElmer® FlexDrop PLUS resulting in a DMSO concentration of 2.5%. The control columns were added manually; 40 μl of 2.5% DMSO (Sigma, D4540-100 ml) in growth media was added to the plate for the high control and 40 μl of 50 μM of AMG2203766 with 2.5% DMSO was added to the plate as the low control. The cell plates and diluted compound plates were put onto the VELOCITY1 1™ VPREP™ 384 ST where the compound plate was mixed and 5 μl of serially diluted compound or controls was added to the cell plate. […] The cell plates were then incubated with compound for two hours at 37° Celsius, 5% CO2. After two hours, the media in the cell plates was aspirated using the BioTek® ELx405HT plate washer removing the majority of media and compound without disturbing the adherent U87 cells. The following assay reagents are components of the SureFire Akt (Ser 473) Phosphorylation 50K Point Kit (TGR BioSciences, TGRAS50K) and an IgG Detection Kit (PerkinElmer, 6760617R). […] The plates were then incubated at room temperature on a shaker for ten minutes. The AlphaScreen reaction was prepared under low light conditions (subdued or green light) including p-Akt (Ser 473) Reaction Buffer, Dilution Buffer, Activation Buffer, Acceptor Beads and Donor Beads at a ratio of 40:20:10:1:1 respectively. The AlphaScreen reaction was added to the cell lysate at 6 μl per well using the PerkinElmer® FlexDrop PLUS. The plates were placed in a humid environment to reduce edge effects and incubated overnight at room temperature with restricted air flow in the dark.
On the final day of the experiment, the plates were read on the PerkinElmer® EnVision™ 2103 Multilable Reader using the standard AlphaScreen readout. The POC is calculated and the data is analyzed to report the IC50 IP for pAkt at Serine 473.

PI3Ka = PI3Ka (Homo sapiens, UniProt P42336); assay: PI3Ka Alpha assay; format: biochemical; settings: the values are: IC50
Sequence of PI3Ka (P42336 whole entry): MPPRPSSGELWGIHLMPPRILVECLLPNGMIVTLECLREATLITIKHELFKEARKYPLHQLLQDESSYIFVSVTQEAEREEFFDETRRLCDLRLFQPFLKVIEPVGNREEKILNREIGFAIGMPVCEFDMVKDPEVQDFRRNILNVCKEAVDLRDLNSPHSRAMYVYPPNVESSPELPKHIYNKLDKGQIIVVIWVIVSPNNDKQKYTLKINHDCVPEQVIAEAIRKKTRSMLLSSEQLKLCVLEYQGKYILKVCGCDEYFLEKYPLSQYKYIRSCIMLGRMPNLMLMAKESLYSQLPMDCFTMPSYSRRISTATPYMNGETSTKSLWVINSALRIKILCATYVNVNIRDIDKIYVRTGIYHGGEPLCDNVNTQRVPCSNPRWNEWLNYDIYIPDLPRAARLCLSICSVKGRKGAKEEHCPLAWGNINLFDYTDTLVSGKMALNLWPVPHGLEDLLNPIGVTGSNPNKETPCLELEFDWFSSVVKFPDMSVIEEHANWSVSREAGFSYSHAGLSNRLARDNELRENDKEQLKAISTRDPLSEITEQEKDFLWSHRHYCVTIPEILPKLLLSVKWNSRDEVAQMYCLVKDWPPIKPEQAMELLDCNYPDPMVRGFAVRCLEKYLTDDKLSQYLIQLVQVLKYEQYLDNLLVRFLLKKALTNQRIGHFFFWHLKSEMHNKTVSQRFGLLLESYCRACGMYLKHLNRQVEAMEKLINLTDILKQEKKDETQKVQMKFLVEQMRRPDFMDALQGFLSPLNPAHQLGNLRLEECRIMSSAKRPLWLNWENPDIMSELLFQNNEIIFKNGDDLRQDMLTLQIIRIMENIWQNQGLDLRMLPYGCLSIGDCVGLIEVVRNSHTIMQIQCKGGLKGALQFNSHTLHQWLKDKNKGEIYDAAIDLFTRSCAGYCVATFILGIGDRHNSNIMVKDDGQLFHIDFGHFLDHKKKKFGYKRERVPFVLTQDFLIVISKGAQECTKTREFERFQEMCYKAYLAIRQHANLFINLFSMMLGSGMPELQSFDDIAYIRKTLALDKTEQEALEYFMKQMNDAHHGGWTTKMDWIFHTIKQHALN
Sequence of PI3Ka (P27986 whole entry partner): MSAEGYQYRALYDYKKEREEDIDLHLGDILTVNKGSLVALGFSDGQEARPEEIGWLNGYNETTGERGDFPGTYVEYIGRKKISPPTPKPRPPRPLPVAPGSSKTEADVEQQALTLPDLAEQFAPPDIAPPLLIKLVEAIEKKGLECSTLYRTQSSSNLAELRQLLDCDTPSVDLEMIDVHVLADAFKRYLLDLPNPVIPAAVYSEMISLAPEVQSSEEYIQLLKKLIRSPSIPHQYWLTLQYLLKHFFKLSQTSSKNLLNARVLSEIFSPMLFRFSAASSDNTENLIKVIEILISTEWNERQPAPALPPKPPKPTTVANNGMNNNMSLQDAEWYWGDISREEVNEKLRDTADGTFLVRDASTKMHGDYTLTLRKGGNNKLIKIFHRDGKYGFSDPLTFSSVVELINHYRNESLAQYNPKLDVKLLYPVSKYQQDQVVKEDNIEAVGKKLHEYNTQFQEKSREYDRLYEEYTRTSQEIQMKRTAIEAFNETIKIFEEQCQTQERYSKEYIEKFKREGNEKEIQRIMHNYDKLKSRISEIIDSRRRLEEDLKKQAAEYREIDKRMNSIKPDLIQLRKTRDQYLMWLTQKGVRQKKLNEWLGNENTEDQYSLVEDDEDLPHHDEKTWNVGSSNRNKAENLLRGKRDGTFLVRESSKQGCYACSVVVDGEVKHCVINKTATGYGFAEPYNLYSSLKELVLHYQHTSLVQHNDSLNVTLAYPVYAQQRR

[2] = U87 MG cells, two hours with compound
[3] = Homo sapiens, U-87 MG, 2 h, U87 MG cells, two hours with compound

1-(4-((1-(4-amino-6-methyl-1,3,5-triazin-2-yl)-1H-benzimidazol-2-yl)amino)phenyl)-3-(3,5-dichlorophenyl)thiourea [Cpd 108]
IC50 (mTOR): 2290 nM | IC50 [1, 2]: 1070 nM | AA12047+++PI3Ka Alpha IC50 IP (PI3Ka): 470 nM

1-(4-((cyclopropylmethyl)amino)-6-methyl-1,3,5-triazin-2-yl)-N-1H-pyrazol-3-yl-1H-benzimidazol-2-amine [Cpd 170]
IC50 (mTOR): 1170 nM | IC50 [1, 2]: 1680 nM | AA12047+++PI3Ka Alpha IC50 IP (PI3Ka): 1370 nM

1-(4-amino-6-methyl-1,3,5-triazin-2-yl)-N-1H-pyrazol-5-yl-5-(4-pyridinyl)-1H-benzimidazol-2-amine [Cpd 144]
IC50 (mTOR): 66.6 nM | IC50 [1, 2]: 125 nM | AA12047+++PI3Ka Alpha IC50 IP (PI3Ka): 7260 nM

1-(4-amino-6-methyl-1,3,5-triazin-2-yl)-N-(1-(4-morpholinylcarbonyl)-1H-pyrazol-4-yl)-1H-benzimidazol-2-amine [Cpd 198]
AA12047+++PI3Ka Alpha IC50 IP (PI3Ka): 2550 nM

1-(4-amino-6-methyl-1,3,5-triazin-2-yl)-N-(6-methoxy-3-pyridinyl)-1H-benzimidazol-2-amine [Cpd 151]
IC50 (mTOR): 124 nM | IC50 [1, 2]: 88.9 nM | AA12047+++PI3Ka Alpha IC50 IP (PI3Ka): 4550 nM

1-(4-amino-6-methyl-1,3,5-triazin-2-yl)-N-cyclopropyl-1H-benzimidazol-2-amine [Cpd 61]
IC50 (mTOR): 10800 nM | IC50 [1, 2]: 1040 nM | AA12047+++PI3Ka Alpha IC50 IP (PI3Ka): 3830 nM

1-(4-methyl-6-((2-(4-morpholinyl)ethyl)amino)-1,3,5-triazin-2-yl)-N-1H-pyrazol-3-yl-1H-benzimidazol-2-amine [Cpd 156]
IC50 (mTOR): 183 nM | IC50 [1, 2]: 54.7 nM | AA12047+++PI3Ka Alpha IC50 IP (PI3Ka): 14.6 nM

3-((4-methyl-6-(2-(1H-pyrazol-3-ylamino)-1H-benzimidazol-1-yl)-1,3,5-triazin-2-yl)amino)propanenitrile [Cpd 141]
IC50 [1, 2]: 203 nM

4-((1-(4-amino-6-methyl-1,3,5-triazin-2-yl)-1H-benzimidazol-2-yl)amino)-N-4-pyridinylbenzamide [Cpd 157]
IC50 (mTOR): 194 nM | IC50 [1, 2]: 767 nM | AA12047+++PI3Ka Alpha IC50 IP (PI3Ka): 31800 nM

Cc1nc(N)nc(-n2c(Nc3cc(O)cc(O)c3)nc3ccccc32)n1 [Cpd 1, 5-((1-(4-amino-6-methyl-1,3,5-triazin-2-yl)-1H-benzimidazol-2-yl)amino)-1,3-benzenediol]
IC50 (mTOR): 0.269 nM | IC50 ([1]; Homo sapiens, U-87 MG, 2 h): 4.96 nM | AA12047+++PI3Ka Alpha IC50 IP (PI3Ka): 0.646 nM

Cc1nc(N)nc(-n2c(Nc3cccc(O)c3)nc3ccc(C(=O)O)cc32)n1 [Cpd 2, 1-(4-amino-6-methyl-1,3,5-triazin-2-yl)-2-((3-hydroxyphenyl)amino)-1H-benzimidazole-6-carboxylic acid]
IC50 (mTOR): 1.38 nM | IC50 [1, 3]: 224 nM

Cc1nc(N)nc(-n2c(Nc3ccn[nH]3)nc3cc(F)c(F)cc32)n1 [Cpd 9, 1-(4-amino-6-methyl-1,3,5-triazin-2-yl)-5,6-difluoro-N-1H-pyrazol-5-yl-1H-benzimidazol-2-amine]
IC50 (mTOR): 24.3 nM | IC50 ([1]; Homo sapiens, U-87 MG, 2 h): 44.6 nM | AA12047+++PI3Ka Alpha IC50 IP (PI3Ka): 485 nM

CNC(=O)Nc1ccc(Nc2nc3ccccc3n2-c2nc(C)nc(NCC#N)n2)cc1 [Cpd 111]
IC50 (mTOR): 0.765 nM | IC50 [1, 3]: 69.9 nM | AA12047+++PI3Ka Alpha IC50 IP (PI3Ka): 52.8 nM

Cc1nc(N)nc(-n2c(Nc3ccc(NC(=O)Nc4ccncc4)cc3)nc3ccccc32)n1 [Cpd 115]
IC50 (mTOR): 4.4 nM | IC50 [1, 3]: 132 nM | AA12047+++PI3Ka Alpha IC50 IP (PI3Ka): 7.31 nM

CNc1nc(C)nc(-n2c(Nc3cc[nH]n3)nc3cc(C)c(C)cc32)n1 [Cpd 138]
IC50 (mTOR): 38.7 nM | IC50 [1, 3]: 158 nM | AA12047+++PI3Ka Alpha IC50 IP (PI3Ka): 1390 nM

Cc1nc(N)nc(-n2c(Nc3cnn(C(=O)N4CCOCC4)c3)nc3ccccc32)n1 [Cpd 201]
IC50 [1, 3]: 652 nM | AA12047+++PI3Ka Alpha IC50 IP (PI3Ka): 3520 nM
